Article PMC7482410 (ACS Omega, 2020)

Tests used:
[1] = target: DDAH (Pseudomonas aeruginosa) (UniProt Q9I4E3); settings: cited from earlier work
[2] = target: human CCL2 (hCCL2-WT, MCP-1) (Homo sapiens, UniProt P13500); experiment: intrinsic Trp fluorescence quenching titration; type: binding
[3] = target: human CCL2 (hCCL2-P8A, MCP-1) (Homo sapiens, UniProt P13500, P31A); experiment: intrinsic Trp fluorescence quenching titration; type: binding
[4] = target: murine CCL2 (mCCL2-P8A, MCP-1) (Mus musculus, UniProt P10148, P31A); experiment: intrinsic Trp fluorescence quenching titration; type: binding
Chain of murine CCL2 (mCCL2-P8A, MCP-1) (P10148 24-99 P31A limits assumed): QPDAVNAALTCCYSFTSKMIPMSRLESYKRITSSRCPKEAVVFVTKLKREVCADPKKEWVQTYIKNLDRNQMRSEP

[5] = target: murine CCL2 (mCCL2-WT, MCP-1) (Mus musculus, UniProt P10148); experiment: intrinsic Trp fluorescence quenching titration; type: binding
Chain of murine CCL2 (mCCL2-WT, MCP-1) (P10148 24-99 limits assumed): as the sequence (P10148 24-99 P31A limits assumed) above, with A8P counted along it

[6] = target: murine CCL2 wild type (monocyte chemoattractant protein-1) (murine) (UniProt P10148); experiment: NMR translational diffusion

Chain of human CCL2 (hCCL2-P8A, MCP-1) (P13500 24-99 P31A): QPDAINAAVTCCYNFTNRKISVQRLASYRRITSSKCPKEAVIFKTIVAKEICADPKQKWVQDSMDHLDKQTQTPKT
Chain of human CCL2 (hCCL2-WT, MCP-1) (P13500 24-99): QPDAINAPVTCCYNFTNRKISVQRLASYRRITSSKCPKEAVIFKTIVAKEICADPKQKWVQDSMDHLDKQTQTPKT
Chain of DDAH (Q9I4E3 whole entry): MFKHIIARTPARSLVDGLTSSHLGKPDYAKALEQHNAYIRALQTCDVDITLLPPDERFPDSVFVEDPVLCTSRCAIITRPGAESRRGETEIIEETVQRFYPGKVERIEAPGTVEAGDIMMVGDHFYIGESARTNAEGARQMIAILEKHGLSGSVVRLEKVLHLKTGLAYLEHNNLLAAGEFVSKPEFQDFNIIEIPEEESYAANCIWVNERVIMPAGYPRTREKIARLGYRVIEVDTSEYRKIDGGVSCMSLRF

Compound: DDAH (from UniProt Q9I4E3)
- Kd [1]: 500 nM

Compound: O=C(O)[C@H]1O[C@@H](Oc2cc3oc(-c4ccccc4)cc(=O)c3c(O)c2O)[C@H](O)[C@@H](O)[C@@H]1O [BA]
- Kd [2]: 250 ± 20 nM
- Kd [3]: 260 ± 20 nM
- Kd [4]: 270 ± 20 nM
- Kd [5]: 290 ± 20 nM

Compound: murine CCL2 wild type (monocyte chemoattractant protein-1) (from UniProt P10148 24-148) (natural protein)
- stoichiometry N [6]: 2
